The text below walks through data of ChEMBL document CHEMBL1201862, “PubChem BioAssay data set” (2004).

Common to all, as to test: NCI-60 cell line screen, 48 h
Assay [1] deals with A549.
Assay [2] deals with COLO 205.
Assay [3] relates to HCT-116.
Assay [4] concerns HL-60.
The test system of assay [5] is HOP-62.
Assay [6] deals with HT-29.
Assay [7] deals with IGROV-1.
Assay [8] concerns KM12.
In assay [9] the test system is LOX IMVI.
Assay [10] concerns MDA-N.
In assay [11] the test system is NCI-H522.
Assay [12] concerns NCI/ADR-RES.
The test system of assay [13] is OVCAR-5.
Assay [14] deals with OVCAR-8.
Assay [15] concerns SK-MEL-28.
Assay [16] has as its system SK-MEL-2.
The subject of assay [17] is SW-620.
The test system of assay [18] is T47D.
Assay [19] concerns U-251.
Assay [20] has as its system UACC-62.

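All cell lines were grown in 96-well plates and treated with compound for 48 hours. At the GI50, growth is halved.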 Activity calls are given as the source filed them. No stated cut-off is given here; in the data, active = GI50 up to about 1.1 µM and inactive = higher.

Take `O[C@@]12Cc3c([nH]c4ccccc34)[C@@H]3Oc4c(-c5ccccc5)ccc5c4[C@@]31CCN(CC1CC1)[C@@H]2C5`: the GI50 is 1.89 µM (inactive) in assay [1]; 1.81 µM (inactive) in assay [2]; 1.73 µM (inactive) in assay [3]; 2.06 µM (inactive) in assay [4]; 1.51 µM (inactive) in [5]; 1.77 µM (inactive) in assay [6]. Besides, the GI50 in assay [7] is 4.07 µM (inactive); in assay [8], 1.5 µM (inactive); in assay [9], 1.89 µM (inactive); in assay [10] it was 1.73 µM (inactive); in [11], 1.77 µM (inactive); in assay [12], 2.51 µM (inactive). Further, the GI50 in assay [13] was 4.11 µM (inactive); in [14], 2.22 µM (inactive); in [15], 1.71 µM (inactive); in assay [16], 1.84 µM (inactive); in assay [17] it was 2.11 µM (inactive); in [18], 2 µM (inactive). Further, the GI50 in assay [19] was 1.71 µM (inactive); in assay [20], 1.8 µM (inactive).
For the compound `CCOC(=O)C(CS)NC(=O)CCCCCCCC(=O)NC(CS)C(=O)OCC` (stereo not given), the GI50 in assay [1] was > 100 µM (inactive); in assay [2], > 100 µM (inactive); in [3], > 100 µM (inactive); in assay [4], 25.8 µM (inactive); in assay [5] it was > 100 µM (inactive); in assay [6] it was > 100 µM (inactive). The GI50 in [7] is > 100 µM (inactive); in assay [8], > 100 µM (inactive); in assay [9] it was 86.9 µM (inactive); in assay [10], > 100 µM (inactive); in assay [11], 49.1 µM (inactive); in assay [12] it was > 100 µM (inactive). Also, the GI50 is > 100 µM (inactive) in assay [13]; > 100 µM (inactive) in [14]; > 100 µM (inactive) in assay [15]; 36.9 µM (inactive) in assay [16]; > 100 µM (inactive) in assay [17]; > 100 µM (inactive) in [18]. For the same compound, the GI50 in assay [19] and in assay [20] was > 100 µM (inactive) throughout.
On to `Fc1cc(C2=C[C@H](c3ccc4c(c3)OCO4)NC(=S)N2)c(Cl)cc1Cl`, for which the GI50 in assay [1] is 35.6 µM (inactive); in [2] it was 20.9 µM (inactive); in assay [3], 27.5 µM (inactive); in assay [4] it was 0.0303 µM (active); in assay [5] it was 39.5 µM (inactive); in [6] it was 27.9 µM (inactive). Besides, the GI50 in assay [7] was 27.4 µM (inactive); in assay [8] it was 38 µM (inactive); in [9], 37.2 µM (inactive); in assay [10], 35.6 µM (inactive); in [11], 31.6 µM (inactive); in [12], 51.6 µM (inactive). Besides, the GI50 in assay [13] was 44.1 µM (inactive); in assay [14], 41.2 µM (inactive); in assay [15], 40.3 µM (inactive); in [16], 20.9 µM (inactive); in [17], 36 µM (inactive); in assay [18], 20.2 µM (inactive). In addition, the GI50 in assay [19] was 22.9 µM (inactive); in [20], 35.9 µM (inactive).
On to `Cc1nc2ccccc2n1Cc1nnc(-c2ccccc2)o1`, for which the GI50 in assay [1] is 52.4 µM (inactive); in [2], 74.6 µM (inactive); in assay [3] it was 46.2 µM (inactive); in [4], > 100 µM (inactive); in assay [5], > 100 µM (inactive); in assay [6] it was 52.5 µM (inactive). Moreover, the GI50 is 72.9 µM (inactive) in assay [7]; 20.6 µM (inactive) in assay [8]; 25.1 µM (inactive) in assay [9]; 70.3 µM (inactive) in assay [10]; > 100 µM (inactive) in [11]; > 100 µM (inactive) in assay [12]. The GI50 in [13] is > 100 µM (inactive); in assay [14], > 100 µM (inactive); in assay [15], > 100 µM (inactive); in assay [16], > 100 µM (inactive); in assay [17], 90.2 µM (inactive); in assay [18], 57.8 µM (inactive). The GI50 in [19] and in [20] was > 100 µM (inactive) throughout.
On to `CC1OC(O[C@H]2C3C=CO[C@@H](OC4OC(CO)C(O)C(O)C4O)C3[C@@]3(COC(=O)/C=C/c4ccccc4)O[C@@H]23)C(O)C(O)C1O` (stereo not given in full), for which the GI50 in assay [1], in assay [2], in assay [3], in assay [4], in assay [5] and in assay [6] was > 100 µM (inactive) each time. For the same compound, the GI50 in assay [7], in assay [8], in [9], in [10], in [11] and in assay [12] was > 100 µM (inactive) in each case. Besides, the GI50 in assay [13], in assay [14], in [15], in assay [16], in [17] and in assay [18] was > 100 µM (inactive) in each case. The GI50 in [19] and in assay [20] was > 100 µM (inactive) in each case.
For `CC(=O)O[C@@H]1CO[C@H]2O[C@H]3[C@@H](C(C=O)=C[C@H](O)[C@@H]4C5=C(C(C)C)CC[C@]5(C)CC[C@@]34C)[C@@]2(O)C1=O` [STRIATIN E], the GI50 is 0.805 µM (active) in assay [1]; 0.0769 µM (active) in assay [2]; 0.076 µM (active) in assay [3]; 0.0175 µM (active) in assay [4]; 0.575 µM (active) in assay [5]; 0.0918 µM (active) in assay [6]. Besides, the GI50 was 0.219 µM (active) in [7]; 0.404 µM (active) in assay [8]; 0.277 µM (active) in assay [9]; 0.177 µM (active) in assay [10]; 0.0803 µM (active) in [11]; 0.189 µM (active) in [12]. Further, the GI50 in [13] is 0.303 µM (active); in [14] it was 0.13 µM (active); in assay [15] it was 0.234 µM (active); in assay [16], 0.23 µM (active); in [17] it was 0.0499 µM (active); in assay [18], 0.0889 µM (active). The GI50 in assay [19] is 0.175 µM (active); in [20] it was 0.515 µM (active).
